# Data taken from patent US20220288091A1, “Method for Improving Insulin Sensitivity” (priority 2019, published 2022).
# Tested on: hypothalamic-pituitary-adrenal axis
# Assay: 24-hour urinary free cortisol (UFC)
# Format: in vivo, human
# Settings: 50 mg every 6 hours for 9 days; for Urinary Free Cortisol (24-hour UFC): mean±SD, n=16, normal 3.5-45
# Text: Urine cortisol and other surrogate biochemical markers of HPA activation: This includes all tests currently available or subsequently developed that may be used to evaluate the effects of GRA dose and schedule on the HPA axis. Normal 24-hour urine free cortisol (UFC) levels range from […] when measured in most tandem mass spectrometry assays. Values are higher when measured by immunoassays because of cross-reactivity with the antibodies used in those assays with other steroids that are structurally similar to cortisol. Measurement of UFC by tandem mass spectrometry is the preferred method to assess the effect of GRAs on the HPA axis for three reasons: 1. ease of collection, 2. specificity of the assay (it measures only cortisol) and 3. the well-established range of values seen in physiologic stress, or Pseudo-Cushing's syndrome, which is 1-3 times the upper limit of the normal reference range. However, other biochemical tests may be used as surrogate biochemical markers of the HPA axis, including, but not limited to measurement of serum or salivary cortisol at multiple time-points throughout a 24 hour period, including both the day and night, which is expressed as either the mean value or the area under the curve. Normal ranges for all cortisol assays and 24-hour assessments will vary depending on the assay technique, and reagents, and must be used based on locally-determined values, or values provided by the manufacturer of an assay kit. The results obtained from any of these assays are then used to determine whether the dosage of the one or more GR antagonists need to be adjusted upwards or downwards so as to maintain 24-hour serum or urinary free cortisol levels at no more than about two or three times the upper level of the normal range, respectively.
# Initially, 19 subjects underwent randomization. […]
# To reduce potential variability associated with estrogen in premenopausal women, testing was performed in the early follicular phase (days 1-7 of menstrual cycle). Baseline height and weight were measured after an overnight fast. […]
compound,measurement,setting,value
"CC#C[C@]1(O)CC[C@H]2[C@@H]3CCC4=CC(=O)CCC4=C3[C@@H](c3ccc(N(C)C)cc3)C[C@@]21C [Mifepristone, 11beta-[p-(dimethylamino)phenyl]-17alpha-(1-propynl)estra-4,9-dien-17beta-ol-3-one]",Urinary Free Cortisol (24-hour UFC),,74.1 ± 75.3 μg/24 hr
same,Urinary Free Cortisol (24-hour UFC),listed as mifepristone,74.1±75.3 μg/24 hr
same,Post-treatment mean UFC in the 8 subjects above the normal limit,subgroup of 8 subjects,120.4±83.9 μg/24 hr
